For this test, the target named is Bifunctional purine biosynthesis protein ATIC (Homo sapiens, UniProt P31939). Nature of the test: Enzyme Activity Assays. The method, then:
Enzyme activity assays of recombinant hGAR Tfase and recombinant hAICAR Tfase were performed as previously described. Kinetics of the enzyme reactions were monitored for 2 min after reaction initiation.

In general, Ki refers to the dissociation constant of the complex between target and ligand, obtained from inhibition or displacement. Lower therefore signals tighter binding.

Bifunctional purine biosynthesis protein ATIC, sequence (P31939 whole entry): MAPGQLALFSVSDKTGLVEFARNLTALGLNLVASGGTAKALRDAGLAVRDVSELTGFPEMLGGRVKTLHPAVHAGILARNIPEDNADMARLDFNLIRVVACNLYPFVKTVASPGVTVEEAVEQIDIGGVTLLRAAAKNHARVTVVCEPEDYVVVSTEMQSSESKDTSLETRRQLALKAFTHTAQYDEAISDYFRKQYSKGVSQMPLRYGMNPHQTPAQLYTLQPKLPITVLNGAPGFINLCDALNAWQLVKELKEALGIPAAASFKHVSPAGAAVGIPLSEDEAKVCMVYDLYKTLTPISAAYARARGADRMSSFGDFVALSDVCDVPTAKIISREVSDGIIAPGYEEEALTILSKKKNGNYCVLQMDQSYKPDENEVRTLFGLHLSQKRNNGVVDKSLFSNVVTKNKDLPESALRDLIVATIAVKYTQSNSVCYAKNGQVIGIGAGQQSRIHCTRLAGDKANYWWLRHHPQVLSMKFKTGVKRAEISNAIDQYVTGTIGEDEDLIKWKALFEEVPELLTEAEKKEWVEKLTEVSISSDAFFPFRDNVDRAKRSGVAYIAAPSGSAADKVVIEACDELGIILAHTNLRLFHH

For the compound `Nc1nc2c(c(=O)[nH]1)C[C@@H](CCc1ccc(C(=O)NC(CCC(=O)O)C(=O)O)cc1)CN2` (stereo partly specified) [Lometrexol (3)], the Ki is more than 100 µM.

For the origin of these results see BindingDB's records for doi:10.1021/bi4005182 (The Scripps Research Institute, 2013).
